Reference: patent US20170138931A9, “METHOD FOR DIAGNOSIS OF INFLAMMATORY DISEASES USING CALGRANULIN C” (WESTFAELISCHE WILHELMS-UNIVERSITAET MUENSTER, priority 2002, published 2017)
Marks after values point to notes of the source that are not given here.

Assays:
[1] = tested on: patients with psoriatic arthritis; assay: Disease activity in patients with psoriatic arthritis after initiation of MTX treatment; type: in vivo, human
Description: We investigated 42 patients with chronic inflammatory arthritis. CALGRANULIN C concentrations were analysed in serum and synovial fluid using a sandwich-ELISA as described above. Serum levels were determined from 14 patients (9 male, 5 female; mean age 40 years; range 21-64) suffering from psoriasis arthritis (mean disease duration 14.6±8.6 months), who where treated with the anti-inflammatory drug MTX (mean dose 12.9±4.8 mg). No other medication apart from non-steroidal anti-inflammatory drugs (NSAIDs) were taken. Serum was obtained before and after treatment (mean follow up interval 6.4±1.3 months). In addition, paired serum and synovial fluid samples were available from 28 patients who underwent arthroscopy (8 patients with psoriatic arthritis, 9 patients with rheumatoid arthritis, 11 patients with seronegative arthritis). All patients were examined by the same physician. Clinical status of patients was documented by recording early morning stiffness, pain score, Ritchie articular index (RI) (Ritchie et al., 1968, QJ Med 37: 393-406) and number of swollen joint count (SJC). […] Patients with seronegative arthritis were in between these groups. In addition to the clinical status, CRP, ESR, anti nuclear antibodies (ANA), and rheumatoid factor (RF) were documented.
Response to therapy was paralleled by a marked decrease of CALGRANULIN C serum levels after MTX treatment (mean 240 ng/ml prior versus 100 ng/ml after MTX; cf. FIG. 8). CALGRANULIN C levels correlated well with improving EMS, pain score, RI and SJC.

[2] = tested on: CALGRANULIN C serum levels; assay: Serum CALGRANULIN C by sandwich ELISA in psoriatic arthritis patients treated with MTX; type: in vivo, human; details: 14 psoriatic arthritis patients, after MTX; 240 ng/ml prior
Description: (§1) Concentrations of CALGRANULIN C in the serum of patients were determined by a double sandwich enzyme linked immunosorbent assay (ELISA) system. Flat-bottom 96-well microtiter plates (Maxisorp; Nunc, Roskilde, Denmark) were coated at 50 μl/well with 10 ng/well of anti-CALGRANULIN C in 0.1 M sodium carbonate buffer, pH 9.6; incubated for 16 h at 4° C.; washed three times with phosphate buffer saline and 0.1% Tween 20, pH 7.4 (wash buffer); and blocked with wash buffer containing 0.25% bovine serum albumin (block buffer) for 1 h at 37° C. Plates were washed once with wash buffer and 50 μl of samples with varying dilutions in block buffer were added for 1 h at room temperature. […] Absorbency at 405 nm was measured with ELISA-reader (MRX microplate reader, Dynatech Laboratories, St Peter Port, Guernsey, UK).
We investigated 42 patients with chronic inflammatory arthritis. CALGRANULIN C concentrations were analysed in serum and synovial fluid using a sandwich-ELISA as described above. Serum levels were determined from 14 patients (9 male, 5 female; mean age 40 years; range 21-64) suffering from psoriasis arthritis (mean disease duration 14.6±8.6 months), who where treated with the anti-inflammatory drug MTX (mean dose 12.9±4.8 mg). […]
We analysed the effects of MTX treatment on CALGRANULIN C expression in serum of 14 patients with psoriatic arthritis and in synovial membranes of 4 patients. […]

JRA patients = details: Ravelli et al., 1995; cited from earlier work
[3] = tested on: CALGRANULIN C expressed in synovial tissue; assay: Immunohistochemical analysis of CALGRANULIN C in synovial tissue of psoriatic arthritis patients before and after MTX treatment; type: in vivo, human; details: for number of CALGRANULIN C-positive cells per field in synovial membrane, mean score of 10 fields: after MTX treatment, 400-fold magnification
Description: To confirm local expression of CALGRANULIN C at sites of inflammation we performed immunohistochemical studies. Synovial biopsies were performed in 4 patients with psoriatic arthritis before and after MTX-therapy. In addition, biopsies were obtained from 5 patients with psoriatic arthritis not receiving MTX, 2 patients with rheumatoid arthritis, and 2 patients with seronegative arthritis. Two biopsies of patients without synovial inflammation served as negative controls. Cryo-fixed and paraffin-embedded sections were prepared as commonly known in the art. Rabbit anti-human CALGRANULIN C antibody was used to detect CALGRANULIN C expression. Mouse-anti-human CD15, a granulocyte-associated antigen, was used to detect granulocytes in infiltrates. Mouse-anti human CD163 antibody (clone RM3/1, detecting a macrophage-specific scavenger receptor) was employed to characterize macrophages in infiltrates. Species matching control antibodies of irrelevant specificity were used as negative controls. Finally the sections were counterstained with Mayer's haematoxylin. Secondary antibodies and substrates for colour reactions were used as described before. For double-labelling experiments, anti-CALGRANULIN C antibody was followed by anti-CD15 antibody. We used affinity-purified goat-anti-mouse or goat-anti-rabbit secondary antibodies conjugated with either Texas Red or FITC (Dianova, Hamburg, Germany). Fluorescence was analysed using a Zeiss Axioskop connected to an Axiocam camera supply with Axiovision 3.0 for windows (Zeiss, Göttingen, Germany). No cross-reactivity or spillover was detected in control experiments after omitting specific antibodies or replacing them by isotype-matched control antibodies of irrelevant specificity.
We analysed the effects of MTX treatment on CALGRANULIN C expression in serum of 14 patients with psoriatic arthritis and in synovial membranes of 4 patients. Before treatment, extensive expression of CALGRANULIN C was found in synovial tissue of psoriatic arthritis patients before MTX treatment (cf. FIG. 7G), as described above predominantly in the sub-lining layer and perivascular.

[4] = tested on: Human mixed donor neutrophils; assay: CALGRANULIN C secretion by neutrophils stimulated with TNF alpha in vitro; type: cell-based
Description: Human mixed donor neutrophils were isolated from buffy coats (German red cross, Munster, Germany) as described before (Vogl et al., 1999, J Biol Chem 274: 25291-25296). Briefly, centrifugation through Ficoll-Hypague (Biocoll, Biochrom, Berlin, Germany) was performed to separate neutrophils from mononuclear cells and platelets. Erythrocytes were separated by dextran sedimentation. The remaining cells were washed twice in PBS. Purity of cells was above 95%, as determined by morphological analysis of Trypan-blue stained cells. Neutrophils were resuspended at a final concentration of 1×10^7 cells/ml in serum free RPMI medium (Biochrom, Berlin, Germany) supplemented with 1% glutamine, 1% non-essential amino acids, and 1% penicillin/streptomycin. […] Stimulated and non-stimulated cells were incubated for 15 or 30 minutes at 37° C., respectively. Finally, neutrophils were pelleted at 500×g for 5 minutes at 4° C. and the supernatant was saved for analyses of CALGRANULIN C with sandwich-ELISA. Cell lysis was assessed by analysing activity of lactate dehydrogenase (LDH) using its capacity to convert NADH to NAD^+ and measuring the decrease of absorbency of NADH at 340 nm. Protease inhibitors were added to prevent proteolytic degradation.

[5] = tested on: CALGRANULIN C serum levels; assay: CALGRANULIN C serum levels in Crohn's disease patients treated with infliximab; type: in vivo, human; details: 3 Crohn's disease patients; before, 2 weeks and 4 weeks after infliximab
Description: FIG. 11: CALGRANULIN C serum levels in patients with Crohn's disease due to infliximab treatment. Individual courses of CALGRANULIN C and CDAI in 3 patients before, 2 weeks, and 4 weeks after treatment with infliximab (a-c).
as §1, with “temperature. The ELISA was calibrated with purified CALGRANULIN C in concentrations ranging from 0.016 to 125 ng/ml.” for “temperature.”
Crohn's disease patients (n=40), ulcerative colitis patients (n=34) and healthy controls (n=30) were investigated: CALGRANULIN C protein serum levels were measured as described above using ELISA. In parallel, CRP and ESR were determined. […]

[6] = Stability of CALGRANULIN C protein; type: physicochemical; details: at room temperature or after multiple thawing and freezing cycles
[7] = tested on: interaction of CALGRANULIN C with RAGE; details: blocking the CALGRANULIN C-RAGE interaction; Hofmann et al. 1999, Schmidt et al. 2001; cited from earlier work

## CN(Cc1cnc2nc(N)nc(N)c2n1)c1ccc(C(=O)N[C@@H](CCC(=O)O)C(=O)O)cc1 [MTX, methotrexat]
[1]; before MTX 4.2, p < 0.05
  CRP: 2.5* mg/dl
[1]; before MTX 5.3, p < 0.05
  Pain: 3.2* points
[1]; before MTX 6.3, p < 0.01
  RI (Ritchie articular index): 1.9** points
[1]; before MTX 9.6, p < 0.01
  SJC (swollen joint count): 3.3** No.
[1]; before MTX 28, p < 0.05
  ESR: 12* mm/h
[1]; before MTX 76, p < 0.01
  EMS (early morning stiffness): 25** min
[2]
  mean CALGRANULIN C serum level: 100 ng/mL
JRA patients
  JRA patients who relapse after withdrawal of treatment: about 50%
[3]; Patient 1, psoriatic arthritis, before MTX 23
  number of CALGRANULIN C-positive cells per field in synovial membrane, mean score of 10 fields: 3
[3]; Patient 2, psoriatic arthritis, before MTX 12
  number of CALGRANULIN C-positive cells per field in synovial membrane, mean score of 10 fields: <1
[3]; Patient 3, psoriatic arthritis, before MTX 17
  number of CALGRANULIN C-positive cells per field in synovial membrane, mean score of 10 fields: <1
[3]; Patient 4, psoriatic arthritis, before MTX 21
  number of CALGRANULIN C-positive cells per field in synovial membrane, mean score of 10 fields: <1
[3]; psoriatic arthritis patients after effective MTX treatment, extensive expression before
  CALGRANULIN C expression in synovial biopsies: almost undetectable

## TNF alpha
[4]; TNF alpha 2 or 5 ng/ml, 15 or 30 minutes at 37° C., unstimulated cells between 5 and 10 ng/ml
  CALGRANULIN C secretion into supernatant: time- and dose-dependent increase
[4]; stimulated vs non-stimulated neutrophils
  viability and cell lysis tested by LDH activity: no differences

## infliximab: TNF blocking agents such as anti-TNF antibodies, e.g. infliximab
[5]
  CALGRANULIN C serum levels after treatment: decreased rapidly

B1: CALGRANULIN C: small protein of 92 amino acids which belongs to the family of calcium-binding S100 proteins; SEQ ID NO:2 (protein)
chain: MTKLEEHLEGIVNIFHQYSVRKGHFDTLSKGELKQLLTKELANTIKNIKDKAVIDEIFQGLDANQDEQVDFQEFISLVAIALKAAHYHTHKE
modifications: homo sapiens
[6]
  stability of the protein: extremely stable

B2: sRAGE: soluble RAGE, receptor for advanced glycation end products, used as blocking agent in mouse models (protein, UniProt Q62151 23-340, looked up)
extracellular domain: GQNITARIGEPLVLSCKGAPKKPPQQLEWKLNTGRTEAWKVLSPQGGPWDSVARILPNGSLLLPATGIVDEGTFRCRATNRRGKEVKSNYRVRVYQIPGKPEIVDPASELTASVPNKVGTCVSEGSYPAGTLSWHLDGKLLIPDGKETLVKEETRRHPETGLFTLRSELTVIPTQGGTHPTFSCSFSLGLPRRRPLNTAPIQLRVREPGPPEGIQLLVEPEGGIVAPGGTVTLTCAISAQPPPQVHWIKDGAPLPLAPSPVLLLPEVGHEDEGTYSCVATHPSHGPQESPPVSIRVTETGDEGPAEGSVGESGLGTLA
modifications: extracellular domain
[7]
  effect in mouse models of inflammation including arthritis: clear anti-inflammatory effects
